Experimental data published in paper PMC6013247, “Preclinical characterization of INCB053914, a novel pan-PIM kinase inhibitor, alone and in combination with anticancer agents, in models of hematologic malignancies” (PLoS ONE, 2018).

Tests used:
[1] = tested on: PIM isozyme expression in Pfeiffer DLBCL cells; assay: PIM isozyme expression in Pfeiffer DLBCL cells; assay type: cell-based
Pfeiffer DLBCL cells = assay: In vitro proliferation of Pfeiffer DLBCL cells, single agents and combination; assay type: cell-based
Description: Synergistic effects of INCB053914 in combination with INCB050465, cytarabine, or itacitinib, were assessed based on the Bliss independence model. In this model, the expected additive effect, with the assumption that concentration dependent effects of 2 drugs (A and B) are independent, is given by the equation EIND = EA + EB – EA •EB, where 0 ≤ EIND ≤ 1; EA and EB are the magnitudes of effects of A and B alone at given concentrations.
The interaction between effects of A and B can be described by the equation Combination Index = EIND/ EOBS, where EOBS is the observed combined effect of A + B expressed as a probability (0 ≤ EOBS ≤ 1). If the point estimate of Combination Index and its upper 97.5% confidence limit are <1 then the combined effect is synergistic; if the 2-sided 95% confidence intervals (CI) encompass 1 then the combined effect is additive (ie, independent); if the point estimate of Combination Index and the lower 2.5% confidence limit are >1 then the combined effect of A + B are antagonistic.

[2] = tested on: human KG-1 AML xenografts; assay: Tumor growth in KG-1 (AML) xenograft, combination with cytarabine; assay type: in vivo, mouse; conditions: KG-1 (AML) tumors
Description: Female immune compromised (severe combined immunodeficiency [SCID]) mice (5–9 weeks of age; Charles River Laboratories, Wilmington, Massachusetts) were inoculated with MOLM-16, KG-1, or KMS-12-BM cells. A cell suspension in Dulbecco’s phosphate-buffered saline (DPBS) (1 × 10^8 cells/ml) was mixed 1:1 (v/v) with matrigel, and 200 μl was injected subcutaneously into the flank of each mouse. […] The treatment of tumor-bearing mice started 7 to 24 days after tumor inoculation for efficacy studies and approximately 14 to 27 days after tumor inoculation for pharmacodynamic studies.
Synergistic effects of INCB053914 in combination with INCB050465, cytarabine, or itacitinib, were assessed based on the Bliss independence model [56, 57]. In this model, the expected additive effect, with the assumption that concentration dependent effects of 2 drugs (A and B) are independent, is given by the equation EIND = EA + EB – EA •EB, where 0 ≤ EIND ≤ 1; EA and EB are the magnitudes of effects of A and B alone at given concentrations.
The interaction between effects of A and B can be described by the equation Combination Index = EIND/ EOBS, where EOBS is the observed combined effect of A + B expressed as a probability (0 ≤ EOBS ≤ 1). […]

[3] = tested on: pBAD, pSTAT3 and MYC in INA-6 (MM) tumors; assay: pBAD, pSTAT3 and MYC levels in INA-6 (MM) tumors; assay type: in vivo, mouse; conditions: INA-6 (MM) tumors in mice
Description: The PI3Kδ inhibitor INCB050465 (10 mg/kg once a day orally) was evaluated in combination with INCB053914 (30 mg/kg once a day orally) in mice bearing Pfeiffer (DLBCL) xenografts, a model sensitive to PI3Kδ inhibition (eight mice/group). Cytarabine was administered via intraperitoneal injection at a standard dose of 20 mg/kg twice a week, in combination with oral INCB053914 at a submaximally efficacious dose of 20 mg/kg twice a day for 12 days in mice bearing human KG-1 AML xenografts, a cytarabine-sensitive model (eight mice/group). The oral JAK1-selective inhibitor itacitinib (60 mg/kg twice a day orally) was assessed in combination with INCB053914 (100 mg/kg twice a day orally) after 8 days of administration to SCID mice bearing INA-6 (MM) xenografts (eight mice/group), a model sensitive to JAK inhibition.

INA-6 cells = assay: STAT3(Y705) and PIM kinase substrate phosphorylation in INA-6 cells in culture; assay type: cell-based; conditions: INA-6 cells treated for 24 hours in culture
Description: Fig S1. Effects of INCB053914 on STAT3(Y705) and PIM kinase substrate phosphorylation in INA-6 cells treated for 24 hours in culture.

CCOc1c([C@H](C)n2nc(C)c3c(N)ncnc32)cc(Cl)c(F)c1[C@@H]1CNC(=O)C1 [INCB050465]
expression of all three PIM isozymes relative to baseline [1]: concentration-dependent increases
increase in PIM2 expression relative to baseline [1]: ~ 2.5 fold
proliferation of Pfeiffer cells, single agent (Pfeiffer DLBCL cells): inhibited

Nc1ccn([C@@H]2O[C@H](CO)[C@@H](O)[C@@H]2O)c(=O)n1 [cytarabine, Cytarabine, reference compound]
tumor growth, single agent [2]: inhibited

N#CCC1(n2cc(-c3ncnc4[nH]ccc34)cn2)CN(C2CCN(C(=O)c3ccnc(C(F)(F)F)c3F)CC2)C1 [itacitinib, reference compound]
MYC levels [3]: decreased MYC levels
level of pSTAT3 [3]: decrease
PIM kinase substrate phosphorylation (INA-6 cells): unaffected

N#CC[C@H](C1CCCC1)n1cc(-c2ncnc3[nH]ccc23)cn1 [ruxolitinib]
PIM kinase substrate phosphorylation (INA-6 cells): unaffected
